We go through 2 compounds from patent publication US20170190705A1, “Compositions and Methods for Inhibiting BMP” (THE BRIGHAM AND WOMAN'S HOSPITAL, INC., priority 2014, published 2017).

Common to all, as to format: biochemical
Assay [1] deals with T1, BMX (Homo sapiens, UniProt P51813).
T1 sequence (P51813 1-675): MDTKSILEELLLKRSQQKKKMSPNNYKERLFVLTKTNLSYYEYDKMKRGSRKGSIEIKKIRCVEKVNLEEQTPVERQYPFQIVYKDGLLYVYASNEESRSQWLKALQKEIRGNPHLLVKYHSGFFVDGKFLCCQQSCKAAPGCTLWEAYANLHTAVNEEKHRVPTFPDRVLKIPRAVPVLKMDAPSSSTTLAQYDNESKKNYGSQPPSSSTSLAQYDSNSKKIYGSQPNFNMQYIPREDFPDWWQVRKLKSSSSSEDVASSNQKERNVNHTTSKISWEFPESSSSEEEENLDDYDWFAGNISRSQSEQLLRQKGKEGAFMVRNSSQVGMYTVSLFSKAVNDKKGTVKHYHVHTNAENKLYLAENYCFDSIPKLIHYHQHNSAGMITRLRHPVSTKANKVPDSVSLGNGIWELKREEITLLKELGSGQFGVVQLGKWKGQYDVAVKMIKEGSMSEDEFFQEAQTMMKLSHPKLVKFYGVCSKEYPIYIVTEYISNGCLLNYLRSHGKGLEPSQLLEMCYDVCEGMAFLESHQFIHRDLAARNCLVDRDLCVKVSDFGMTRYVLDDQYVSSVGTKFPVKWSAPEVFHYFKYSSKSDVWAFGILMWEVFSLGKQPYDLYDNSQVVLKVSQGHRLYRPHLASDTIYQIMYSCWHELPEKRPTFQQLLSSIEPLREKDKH
Nature of the assay: Kinome profiling BMX. The note with it: read-out: Inhibitory activity BMX; for inhibition at 0.1 µM: 100 nM. On the procedure:
(§1) . The kinome-wide selectivity was determined following the methods previously reported by Mohedas et al., ACS Chem Biol 2013, 8, 1291-1302 and Sanvitale et al., PLoS One 2013, 8, e62721.

Assay [2] addresses GRK6 (Homo sapiens, UniProt P43250). Nature of the assay: Kinome profiling GRK6. The note with it: read-out: Inhibitory activity GRK6; for inhibition at 0.1 µM: 100 nM. On the procedure: as §1
The target of assay [3] is T2, BRSK1 (Homo sapiens, UniProt Q8TDC3).
T2 sequence (Q8TDC3 1-778): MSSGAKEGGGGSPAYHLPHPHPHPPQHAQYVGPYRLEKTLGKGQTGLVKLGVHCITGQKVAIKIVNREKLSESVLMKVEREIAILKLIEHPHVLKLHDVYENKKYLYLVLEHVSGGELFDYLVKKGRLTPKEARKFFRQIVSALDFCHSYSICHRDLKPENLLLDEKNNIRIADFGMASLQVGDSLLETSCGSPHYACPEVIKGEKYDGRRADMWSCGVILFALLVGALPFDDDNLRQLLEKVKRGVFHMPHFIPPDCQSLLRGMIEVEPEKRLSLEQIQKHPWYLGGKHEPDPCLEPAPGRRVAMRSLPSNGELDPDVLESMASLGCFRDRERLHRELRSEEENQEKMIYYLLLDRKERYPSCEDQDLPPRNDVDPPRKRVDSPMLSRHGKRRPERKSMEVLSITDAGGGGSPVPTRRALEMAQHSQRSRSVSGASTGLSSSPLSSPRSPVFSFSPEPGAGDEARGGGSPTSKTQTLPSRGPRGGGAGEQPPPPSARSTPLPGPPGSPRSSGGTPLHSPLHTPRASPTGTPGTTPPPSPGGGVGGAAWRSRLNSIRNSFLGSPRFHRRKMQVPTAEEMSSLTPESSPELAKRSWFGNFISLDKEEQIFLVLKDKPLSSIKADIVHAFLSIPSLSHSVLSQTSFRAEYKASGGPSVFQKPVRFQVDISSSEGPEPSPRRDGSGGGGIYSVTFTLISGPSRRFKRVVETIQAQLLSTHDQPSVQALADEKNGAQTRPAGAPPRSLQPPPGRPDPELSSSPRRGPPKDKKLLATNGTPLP
Nature of the assay: Kinome profiling BRSK1. The note with it: read-out: Inhibitory activity BRSK1; for inhibition at 0.1 µM: 100 nM. On the procedure:
as §1

The target of assay [4] is PKC-γ (Homo sapiens, UniProt P05129). In words: Kinome profiling PKC-γ. The note with it: read-out: Inhibitory activity PKC-γ; for inhibition at 0.1 µM: 100 nM. On the procedure: as §1
Assay [5] deals with T3, MST2 (Homo sapiens, UniProt Q13188).
T3 sequence (Q13188 1-491): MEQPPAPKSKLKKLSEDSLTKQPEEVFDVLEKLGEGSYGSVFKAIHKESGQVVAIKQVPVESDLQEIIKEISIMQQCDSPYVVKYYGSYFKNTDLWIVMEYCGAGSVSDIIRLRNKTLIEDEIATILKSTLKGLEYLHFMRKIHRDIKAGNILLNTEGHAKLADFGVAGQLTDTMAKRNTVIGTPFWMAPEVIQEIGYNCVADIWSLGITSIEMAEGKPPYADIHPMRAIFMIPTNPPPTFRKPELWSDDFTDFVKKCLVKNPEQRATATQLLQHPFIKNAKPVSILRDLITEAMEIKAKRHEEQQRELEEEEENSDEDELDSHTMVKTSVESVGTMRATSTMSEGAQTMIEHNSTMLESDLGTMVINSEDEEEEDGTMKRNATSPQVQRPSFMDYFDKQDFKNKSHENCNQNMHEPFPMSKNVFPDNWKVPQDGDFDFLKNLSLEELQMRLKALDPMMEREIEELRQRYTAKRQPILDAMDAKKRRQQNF
In words: Kinome profiling MST2. As to conditions: read-out: Inhibitory activity MST2; for inhibition at 0.1 µM: 100 nM. On the procedure: as §1

The target of assay [6] is JAK1 (Homo sapiens, UniProt P23458). In words: Kinome profiling JAK1. As to conditions: read-out: Inhibitory activity JAK1; for inhibition at 0.1 µM: 100 nM. On the procedure: as §1

SMILES strings stand for the structures.

Sequence of JAK1 (P23458 whole entry): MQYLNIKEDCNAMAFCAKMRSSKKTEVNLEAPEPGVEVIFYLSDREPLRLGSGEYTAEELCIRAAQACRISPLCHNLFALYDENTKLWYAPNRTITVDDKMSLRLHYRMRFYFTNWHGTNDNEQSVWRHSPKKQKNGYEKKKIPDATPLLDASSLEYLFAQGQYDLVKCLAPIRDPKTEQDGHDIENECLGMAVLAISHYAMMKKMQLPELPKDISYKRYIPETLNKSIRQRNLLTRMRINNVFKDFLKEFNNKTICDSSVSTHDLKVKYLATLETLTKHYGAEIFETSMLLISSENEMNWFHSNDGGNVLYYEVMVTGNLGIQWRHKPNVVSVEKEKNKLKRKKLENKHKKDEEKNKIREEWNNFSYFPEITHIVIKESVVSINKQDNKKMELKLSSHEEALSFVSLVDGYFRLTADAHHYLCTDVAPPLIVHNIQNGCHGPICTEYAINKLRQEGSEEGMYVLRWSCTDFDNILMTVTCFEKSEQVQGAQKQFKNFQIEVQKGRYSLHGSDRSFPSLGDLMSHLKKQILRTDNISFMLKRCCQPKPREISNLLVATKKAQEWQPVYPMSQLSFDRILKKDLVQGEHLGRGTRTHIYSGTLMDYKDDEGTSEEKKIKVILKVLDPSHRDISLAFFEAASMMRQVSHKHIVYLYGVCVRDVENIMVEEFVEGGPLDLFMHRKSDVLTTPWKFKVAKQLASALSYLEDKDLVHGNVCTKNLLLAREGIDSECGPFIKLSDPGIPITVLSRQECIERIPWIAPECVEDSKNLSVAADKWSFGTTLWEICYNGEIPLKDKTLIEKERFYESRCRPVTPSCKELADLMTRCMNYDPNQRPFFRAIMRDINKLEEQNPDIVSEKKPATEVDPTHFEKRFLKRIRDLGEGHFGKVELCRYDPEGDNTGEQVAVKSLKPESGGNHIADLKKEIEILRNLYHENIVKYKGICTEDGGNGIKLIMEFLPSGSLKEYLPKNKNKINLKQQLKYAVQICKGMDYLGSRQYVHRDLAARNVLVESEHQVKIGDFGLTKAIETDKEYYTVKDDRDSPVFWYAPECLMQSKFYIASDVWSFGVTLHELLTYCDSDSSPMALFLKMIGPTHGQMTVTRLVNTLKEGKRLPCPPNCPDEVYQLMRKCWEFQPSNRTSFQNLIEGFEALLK
Sequence of GRK6 (P43250 whole entry): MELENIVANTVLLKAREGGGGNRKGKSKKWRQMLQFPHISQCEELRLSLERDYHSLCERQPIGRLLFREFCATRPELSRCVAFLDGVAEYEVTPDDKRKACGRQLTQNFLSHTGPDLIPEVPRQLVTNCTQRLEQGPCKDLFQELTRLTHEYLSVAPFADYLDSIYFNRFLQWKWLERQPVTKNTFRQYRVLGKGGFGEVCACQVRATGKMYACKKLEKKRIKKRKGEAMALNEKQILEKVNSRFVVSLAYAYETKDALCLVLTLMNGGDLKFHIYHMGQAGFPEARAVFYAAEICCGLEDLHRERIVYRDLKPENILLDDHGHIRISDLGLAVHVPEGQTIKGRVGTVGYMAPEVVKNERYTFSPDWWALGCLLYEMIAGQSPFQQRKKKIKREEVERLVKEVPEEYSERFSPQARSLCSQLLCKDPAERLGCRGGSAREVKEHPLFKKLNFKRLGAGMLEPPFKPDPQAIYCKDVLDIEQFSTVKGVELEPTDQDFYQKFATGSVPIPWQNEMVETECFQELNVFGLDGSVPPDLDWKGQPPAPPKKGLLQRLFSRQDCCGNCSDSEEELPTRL

Regarding `COc1cc(-c2cc(-c3ccc(N4CCNCC4)cc3)cnc2N)cc(OC)c1OC` [Compound 15, 5-(4-(piperazin-1-yl)phenyl)-3-(3,4,5-trimethoxyphenyl)pyridin-2-amine], the inhibition at 0.1 µM was 5% in assay [1]; 0% in assay [2]; 0% in assay [3]; 1% in assay [4]; 3% in assay [5]; 1% in assay [6]. For the same compound, the inhibition at 1 µM in assay [1] was 30%; in assay [2], 0%; in assay [3], 0%; in assay [4] it was 4%; in assay [5] it was 4%; in assay [6], 0%.
`COc1cc(-c2cc(-c3ccc(N4CCNCC4)cc3)cnc2C)cc(OC)c1OC` [Compound 10, 1-(4-(6-methyl-5-(3,4,5-trimethoxyphenyl)pyridin-3-yl)phenyl)piperazine]: the inhibition at 0.1 µM in assay [1] was 7%; in assay [2] it was 8%; in assay [3], 1%; in assay [4], 3%; in assay [5] it was 0%; in assay [6] it was 2%. In addition, the inhibition at 1 µM in assay [1] is 11%; in assay [2] it was 3%; in assay [3], 1%; in assay [4], 5%; in assay [5] it was 1%; in assay [6] it was 2%.
